Values of other authors, collected in patent US20060057174A1, “Natural-non-toxic insect repellant” (priority 2004, published 2006).

Tested on: Aedes aegypti
Conditions: ingredients of Skin-So-Soft bath oil

SMILES	repellent to Aedes aegypti
O=C(c1ccccc1)c1ccccc1 [benzophenone]	repellent
CC(C)OC(=O)CCCCC(=O)OC(C)C [diisopropyl adipate]	repellent
